In patent US10344060B2 (priority 2013, dated 2019):
Where two headings read alike, the source gives them in different places.

Experiments:
Assay in all cases: cell-based
[1] = target: hNav1.7 (Homo sapiens, UniProt Q15858); conditions: read-out: IC50 (μM) Nav1.7
[2] = target: hNav1.3 (Homo sapiens, UniProt Q9NY46); conditions: IonWorks Quattro, read-out: IC50 (μM) Nav1.3
[3] = target: hNav1.5 (Homo sapiens, UniProt Q14524); conditions: IonWorks Quattro, read-out: IC50 (μM) Nav1.5
[4] = target: hNav1.4 (Homo sapiens, UniProt P35499); format: cell-based; conditions: for IC50: IonWorks Quattro, read-out: IC50 (μM) Nav1.4; for Nav1.4/Nav1.7: ratio of IonWorks Quattro IC50 values
Sequence of hNav1.4 (P35499 whole entry): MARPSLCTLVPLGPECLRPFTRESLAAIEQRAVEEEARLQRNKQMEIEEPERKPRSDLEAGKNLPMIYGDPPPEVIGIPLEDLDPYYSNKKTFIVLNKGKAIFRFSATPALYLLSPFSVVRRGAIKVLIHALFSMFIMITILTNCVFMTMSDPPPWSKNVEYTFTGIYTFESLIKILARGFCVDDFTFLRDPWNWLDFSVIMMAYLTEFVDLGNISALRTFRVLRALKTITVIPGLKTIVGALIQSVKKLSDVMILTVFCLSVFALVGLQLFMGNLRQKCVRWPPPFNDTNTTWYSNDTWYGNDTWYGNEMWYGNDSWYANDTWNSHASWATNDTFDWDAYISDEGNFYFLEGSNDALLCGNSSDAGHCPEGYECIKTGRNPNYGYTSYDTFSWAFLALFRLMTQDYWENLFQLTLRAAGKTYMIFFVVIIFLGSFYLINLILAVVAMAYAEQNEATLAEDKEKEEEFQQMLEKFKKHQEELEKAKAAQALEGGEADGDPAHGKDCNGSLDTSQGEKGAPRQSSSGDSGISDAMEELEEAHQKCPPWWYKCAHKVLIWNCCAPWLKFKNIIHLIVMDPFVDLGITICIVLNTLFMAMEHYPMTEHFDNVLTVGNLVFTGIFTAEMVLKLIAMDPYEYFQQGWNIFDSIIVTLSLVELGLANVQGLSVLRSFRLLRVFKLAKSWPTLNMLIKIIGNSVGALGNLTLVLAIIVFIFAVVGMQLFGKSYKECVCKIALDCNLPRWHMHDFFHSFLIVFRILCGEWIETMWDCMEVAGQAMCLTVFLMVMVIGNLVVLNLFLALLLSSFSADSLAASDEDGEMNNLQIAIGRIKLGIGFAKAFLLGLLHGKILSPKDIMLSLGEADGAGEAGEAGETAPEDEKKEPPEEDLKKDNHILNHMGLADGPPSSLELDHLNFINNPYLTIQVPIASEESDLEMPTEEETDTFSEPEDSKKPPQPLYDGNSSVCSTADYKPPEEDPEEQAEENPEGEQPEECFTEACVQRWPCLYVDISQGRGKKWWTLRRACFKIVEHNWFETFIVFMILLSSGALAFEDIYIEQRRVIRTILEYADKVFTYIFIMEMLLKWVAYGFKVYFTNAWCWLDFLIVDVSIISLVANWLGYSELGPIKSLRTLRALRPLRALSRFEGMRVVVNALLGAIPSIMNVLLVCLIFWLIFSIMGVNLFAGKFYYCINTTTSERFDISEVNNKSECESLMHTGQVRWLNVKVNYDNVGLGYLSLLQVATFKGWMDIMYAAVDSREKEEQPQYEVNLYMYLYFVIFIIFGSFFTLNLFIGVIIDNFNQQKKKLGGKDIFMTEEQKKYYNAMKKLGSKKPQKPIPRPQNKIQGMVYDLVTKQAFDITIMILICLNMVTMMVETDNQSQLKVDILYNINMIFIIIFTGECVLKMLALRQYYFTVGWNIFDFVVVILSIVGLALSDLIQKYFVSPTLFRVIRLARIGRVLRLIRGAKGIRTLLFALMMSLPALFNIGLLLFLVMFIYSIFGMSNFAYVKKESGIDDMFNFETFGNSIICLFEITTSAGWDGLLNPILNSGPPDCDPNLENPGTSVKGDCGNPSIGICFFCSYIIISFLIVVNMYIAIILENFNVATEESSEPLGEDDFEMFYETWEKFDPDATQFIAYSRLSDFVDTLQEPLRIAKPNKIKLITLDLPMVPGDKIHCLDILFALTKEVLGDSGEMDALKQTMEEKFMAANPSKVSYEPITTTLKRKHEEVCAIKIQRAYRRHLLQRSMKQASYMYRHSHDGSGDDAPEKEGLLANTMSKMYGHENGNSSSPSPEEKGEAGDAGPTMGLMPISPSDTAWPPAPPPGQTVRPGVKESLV

Sequence of hNav1.5 (Q14524 whole entry): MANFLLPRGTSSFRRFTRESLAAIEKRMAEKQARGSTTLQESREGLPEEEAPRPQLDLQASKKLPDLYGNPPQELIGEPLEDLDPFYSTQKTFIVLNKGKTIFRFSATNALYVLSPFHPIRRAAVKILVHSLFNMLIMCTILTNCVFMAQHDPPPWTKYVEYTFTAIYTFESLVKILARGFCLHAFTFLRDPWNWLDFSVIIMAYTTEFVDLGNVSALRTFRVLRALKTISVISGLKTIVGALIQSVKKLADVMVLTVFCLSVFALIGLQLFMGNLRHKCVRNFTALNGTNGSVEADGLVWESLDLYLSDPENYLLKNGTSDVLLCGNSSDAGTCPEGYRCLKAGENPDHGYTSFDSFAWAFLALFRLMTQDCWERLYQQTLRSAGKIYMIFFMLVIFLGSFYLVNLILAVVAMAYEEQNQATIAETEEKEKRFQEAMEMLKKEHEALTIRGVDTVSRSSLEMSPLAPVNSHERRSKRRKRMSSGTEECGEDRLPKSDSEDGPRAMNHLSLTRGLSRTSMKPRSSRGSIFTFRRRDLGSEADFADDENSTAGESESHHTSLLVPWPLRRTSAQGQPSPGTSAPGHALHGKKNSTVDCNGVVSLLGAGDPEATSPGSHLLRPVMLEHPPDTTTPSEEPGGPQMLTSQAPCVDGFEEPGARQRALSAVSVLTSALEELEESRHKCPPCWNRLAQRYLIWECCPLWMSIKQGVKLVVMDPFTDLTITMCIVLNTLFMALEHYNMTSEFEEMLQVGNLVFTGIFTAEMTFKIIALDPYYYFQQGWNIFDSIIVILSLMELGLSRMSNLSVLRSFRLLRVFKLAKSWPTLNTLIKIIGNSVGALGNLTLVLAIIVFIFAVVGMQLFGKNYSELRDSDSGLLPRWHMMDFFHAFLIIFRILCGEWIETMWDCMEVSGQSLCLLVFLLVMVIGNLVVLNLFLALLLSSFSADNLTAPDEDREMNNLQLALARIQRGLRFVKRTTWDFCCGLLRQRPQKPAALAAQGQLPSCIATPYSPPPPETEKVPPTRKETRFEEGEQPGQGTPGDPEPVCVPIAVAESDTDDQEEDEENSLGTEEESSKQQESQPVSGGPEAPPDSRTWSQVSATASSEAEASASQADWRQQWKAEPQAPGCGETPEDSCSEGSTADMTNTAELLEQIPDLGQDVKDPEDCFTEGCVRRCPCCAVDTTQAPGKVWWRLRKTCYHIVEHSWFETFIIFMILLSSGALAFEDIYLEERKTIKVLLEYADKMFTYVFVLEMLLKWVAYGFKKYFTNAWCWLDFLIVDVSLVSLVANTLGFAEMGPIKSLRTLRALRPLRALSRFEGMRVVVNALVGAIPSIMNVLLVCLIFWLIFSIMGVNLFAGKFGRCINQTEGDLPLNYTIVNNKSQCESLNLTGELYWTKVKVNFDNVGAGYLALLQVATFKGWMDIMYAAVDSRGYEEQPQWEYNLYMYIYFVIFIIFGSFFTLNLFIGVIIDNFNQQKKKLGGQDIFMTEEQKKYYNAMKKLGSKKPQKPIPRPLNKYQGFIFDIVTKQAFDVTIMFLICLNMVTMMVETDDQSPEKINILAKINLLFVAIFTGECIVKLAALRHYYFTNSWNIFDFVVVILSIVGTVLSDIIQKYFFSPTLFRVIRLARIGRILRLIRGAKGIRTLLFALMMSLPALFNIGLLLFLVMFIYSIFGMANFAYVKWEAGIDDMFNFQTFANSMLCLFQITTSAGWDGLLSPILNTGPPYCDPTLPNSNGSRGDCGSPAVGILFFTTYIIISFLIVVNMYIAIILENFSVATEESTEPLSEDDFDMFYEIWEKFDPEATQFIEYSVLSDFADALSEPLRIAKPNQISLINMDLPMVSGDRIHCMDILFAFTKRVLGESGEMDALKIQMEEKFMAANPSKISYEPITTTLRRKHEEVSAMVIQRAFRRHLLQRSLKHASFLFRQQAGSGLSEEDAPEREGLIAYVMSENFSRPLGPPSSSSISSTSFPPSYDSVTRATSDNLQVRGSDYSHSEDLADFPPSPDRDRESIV

SMILES | IC50 ([1]; IonWorks Quattro, […]) [µM] | IC50 ([2]; Table 9) [µM] | IC50 ([3]; Table 9) [µM] | IC50 ([4]; Table 9) [µM] | IC50 [1] [µM] | IC50 ([2]; Table 6) [µM] | IC50 ([3]; Table 6) [µM] | IC50 ([4]; Table 6) [µM] | Nav1.4/Nav1.7 ([4]; Table 6)
CCCC[C@@H]1NC(=O)[C@H](Cc2c[nH]c3ccccc23)NC(=O)[C@H](CCCCN)NC(=O)[C@H](CCC(N)=O)NC(=O)[C@@H](NC(=O)[C@@H](N)Cc2ccc(O)cc2)CSSC[C@@H]2NC(=O)[C@@H]3CSSC[C@@H](C(=O)N[C@@H](CCCNC(=N)N)C(=O)N[C@@H](CCCCN)C(=O)N[C@H](C(=O)N[C@H](C(N)=O)[C@@H](C)CC)[C@@H](C)CC)NC(=O)[C@H](Cc4c[nH]c5ccccc45)NC(=O)[C@H](CC(C)C)NC(=O)[C@H](CCCCN)NC(=O)[C@H](CSSC[C@H](NC(=O)[C@H]([C@@H](C)O)NC(=O)[C@H](Cc4cn(CCCOCCOCCOCCOCCOCCOCCOCCOCCOCCOCCN)nn4)NC1=O)C(=O)N[C@@H](CC(=O)O)C(=O)N[C@@H](CO)C(=O)N[C@@H](CCCCN)C(=O)N[C@@H](CCCNC(=N)N)C(=O)N[C@@H](C)C(=O)N3)NC(=O)[C@H](CCCNC(=N)N)NC(=O)[C@H](CC(C)C)NC(=O)CNC(=O)[C@H](CCC(=O)O)NC2=O [compound 253] | 4.6 | > 7 | > 7 | > 7 | – | – | – | – | –
CC[C@H](C)[C@H](NC(=O)[C@@H](NC(=O)[C@H](CCCCN)NC(=O)[C@H](CCCNC(=N)N)NC(=O)[C@@H]1CSSC[C@@H]2NC(=O)[C@H](C)NC(=O)[C@H](CCCNC(=N)N)NC(=O)[C@H](CCCCN)NC(=O)[C@H](CCCNC(=N)N)NC(=O)[C@H](CC(=O)O)NC(=O)[C@@H]3CSSC[C@H](NC(=O)[C@H](CCCNC(=N)N)NC(=O)[C@H](CC(C)C)NC(=O)CNC(=O)[C@H](CCC(=O)O)NC(=O)[C@H](CSSC[C@H](NC(=O)[C@@H](N)Cc4ccc(O)cc4)C(=O)N[C@@H](CCC(N)=O)C(=O)N[C@@H](CCCCN)C(=O)N[C@@H](Cc4c[nH]c5ccccc45)C(=O)N[C@@H](CCSC)C(=O)N[C@@H](Cc4c[nH]c5ccccc45)C(=O)N[C@@H]([C@@H](C)O)C(=O)N3)NC2=O)C(=O)N[C@@H](CCCCN)C(=O)N[C@@H](CC(C)C)C(=O)N[C@@H](Cc2c[nH]c3ccccc23)C(=O)N1)[C@@H](C)CC)C(N)=O [compound 98] | – | – | – | – | 0.007 | 0.03 | 0.86 | 0.09 | 12
CC[C@H](C)[C@H](NC(=O)[C@@H](NC(=O)[C@H](CCCCN)NC(=O)[C@H](CCCNC(=N)N)NC(=O)[C@@H]1CSSC[C@@H]2NC(=O)[C@H](C)NC(=O)[C@H](CCCNC(=N)N)NC(=O)[C@H](CCCCN)NC(=O)[C@H](CO)NC(=O)[C@H](CC(=O)O)NC(=O)[C@@H]3CSSC[C@H](NC(=O)[C@H](CCCNC(=N)N)NC(=O)[C@H](CC(C)C)NC(=O)CNC(=O)[C@H](CCC(=O)O)NC(=O)[C@H](CSSC[C@H](NC(=O)[C@@H](N)CCCCN)C(=O)N[C@@H](CCC(N)=O)C(=O)N[C@@H](CCCCN)C(=O)N[C@@H](Cc4c[nH]c5ccccc45)C(=O)N[C@@H](CCSC)C(=O)N[C@@H](Cc4c[nH]c5ccccc45)C(=O)N[C@@H]([C@@H](C)O)C(=O)N3)NC2=O)C(=O)N[C@@H](CCCCN)C(=O)N[C@@H](CC(C)C)C(=O)N[C@@H](Cc2c[nH]c3ccccc23)C(=O)N1)[C@@H](C)CC)C(N)=O [compound 71] | – | – | – | – | 0.005 | 0.05 | 2.3 | 0.06 | 12
CC[C@H](C)[C@H](NC(=O)[C@@H](NC(=O)[C@H](CCCCN)NC(=O)[C@H](CCCNC(=N)N)NC(=O)[C@@H]1CSSC[C@@H]2NC(=O)[C@H](C)NC(=O)[C@H](CCCNC(=N)N)NC(=O)[C@H](CCCCN)NC(=O)[C@H](CO)NC(=O)[C@H](CC(=O)O)NC(=O)[C@@H]3CSSC[C@H](NC(=O)[C@H](CCCNC(=N)N)NC(=O)[C@H](CC(C)C)NC(=O)CNC(=O)[C@H](CCC(=O)O)NC(=O)[C@H](CSSC[C@H](NC(=O)[C@@H](N)Cc4ccc(O)cc4)C(=O)N[C@@H](CCC(N)=O)C(=O)N[C@@H](CCCCN)C(=O)N[C@@H](Cc4c[nH]c5ccccc45)C(=O)N[C@@H](CCSC)C(=O)N[C@@H](Cc4c[nH]c5ccccc45)C(=O)N[C@@H](CCCNC(=N)N)C(=O)N3)NC2=O)C(=O)N[C@@H](CCCCN)C(=O)N[C@@H](CC(C)C)C(=O)N[C@@H](Cc2c[nH]c3ccccc23)C(=O)N1)[C@@H](C)CC)C(N)=O [compound 96] | – | – | – | – | 0.018 | 0.05 | 1.7 | 0.14 | 7
CC[C@H](C)[C@H](NC(=O)[C@@H](NC(=O)[C@H](CCCNC(=N)N)NC(=O)[C@H](CCCNC(=N)N)NC(=O)[C@@H]1CSSC[C@@H]2NC(=O)[C@H](C)NC(=O)[C@H](CCCNC(=N)N)NC(=O)[C@H](CCCCN)NC(=O)[C@H](CO)NC(=O)[C@H](CC(=O)O)NC(=O)[C@@H]3CSSC[C@H](NC(=O)[C@H](CCCNC(=N)N)NC(=O)[C@H](CC(C)C)NC(=O)CNC(=O)[C@H](CCC(=O)O)NC(=O)[C@H](CSSC[C@H](NC(=O)[C@@H](N)Cc4ccc(O)cc4)C(=O)N[C@@H](CCC(N)=O)C(=O)N[C@@H](CCCCN)C(=O)N[C@@H](Cc4c[nH]c5ccccc45)C(=O)N[C@@H](CCSC)C(=O)N[C@@H](Cc4c[nH]c5ccccc45)C(=O)N[C@@H]([C@@H](C)O)C(=O)N3)NC2=O)C(=O)N[C@@H](CCCCN)C(=O)N[C@@H](CC(C)C)C(=O)N[C@@H](Cc2c[nH]c3ccccc23)C(=O)N1)[C@@H](C)CC)C(N)=O [compound 107] | – | – | – | – | 0.028 | 0.1 | > 5 | 0.23 | 8
CCCC[C@@H]1NC(=O)[C@H](Cc2c[nH]c3ccccc23)NC(=O)[C@H](CCCCN)NC(=O)[C@H](CCC(N)=O)NC(=O)[C@@H](NC(=O)[C@@H](N)Cc2ccc(O)cc2)CSSC[C@@H]2NC(=O)[C@@H]3CSSC[C@@H](C(=O)N[C@@H](CCCNC(=N)N)C(=O)N[C@@H](CCCCN)C(=O)N[C@H](C(=O)N[C@H](C(N)=O)[C@@H](C)CC)[C@@H](C)CC)NC(=O)[C@H](Cc4c[nH]c5ccccc45)NC(=O)[C@H](Cc4cn(CCCOCCOCCOCCOCCOCCOCCOCCOCCOCCOCCN)nn4)NC(=O)[C@H](CCCCN)NC(=O)[C@H](CSSC[C@H](NC(=O)[C@H]([C@@H](C)O)NC(=O)[C@H](Cc4c[nH]c5ccccc45)NC1=O)C(=O)N[C@@H](CC(=O)O)C(=O)N[C@@H](CO)C(=O)N[C@@H](CCCCN)C(=O)N[C@@H](CCCNC(=N)N)C(=O)N[C@@H](C)C(=O)N3)NC(=O)[C@H](CCCNC(=N)N)NC(=O)[C@H](CC(C)C)NC(=O)CNC(=O)[C@H](CCC(=O)O)NC2=O [compound 265] | 4.8 | 5.6 | > 7 | > 7 | – | – | – | – | –
CC[C@H](C)[C@H](NC(=O)[C@@H](NC(=O)[C@H](CCCCN)NC(=O)[C@H](CCCNC(=N)N)NC(=O)[C@@H]1CSSC[C@@H]2NC(=O)[C@H](CCCCN)NC(=O)[C@H](CCCNC(=N)N)NC(=O)[C@H](CCCCN)NC(=O)[C@H](CO)NC(=O)[C@H](CC(=O)O)NC(=O)[C@@H]3CSSC[C@H](NC(=O)[C@H](CCCNC(=N)N)NC(=O)[C@H](CC(C)C)NC(=O)CNC(=O)[C@H](CCC(=O)O)NC(=O)[C@H](CSSC[C@H](NC(=O)[C@@H](N)Cc4ccc(O)cc4)C(=O)N[C@@H](CCC(N)=O)C(=O)N[C@@H](CCCCN)C(=O)N[C@@H](Cc4c[nH]c5ccccc45)C(=O)N[C@@H](CCSC)C(=O)N[C@@H](Cc4c[nH]c5ccccc45)C(=O)N[C@@H]([C@@H](C)O)C(=O)N3)NC2=O)C(=O)N[C@@H](CCCCN)C(=O)N[C@@H](CC(C)C)C(=O)N[C@@H](Cc2c[nH]c3ccccc23)C(=O)N1)[C@@H](C)CC)C(N)=O [compound 80] | – | – | – | – | 0.007 | 0.03 | 1.5 | 0.07 | 10
CC[C@H](C)[C@H](NC(=O)[C@@H](NC(=O)[C@H](CCCCN)NC(=O)[C@H](CCCNC(=N)N)NC(=O)[C@@H]1CSSC[C@@H]2NC(=O)[C@H](C)NC(=O)[C@H](CCCNC(=N)N)NC(=O)[C@H](CCCCN)NC(=O)[C@H](CO)NC(=O)[C@H](CC(=O)O)NC(=O)[C@@H]3CSSC[C@H](NC(=O)[C@H](CCCNC(=N)N)NC(=O)[C@H](CC(C)C)NC(=O)CNC(=O)[C@H](CCCNC(=N)N)NC(=O)[C@H](CSSC[C@H](NC(=O)[C@@H](N)Cc4ccc(O)cc4)C(=O)N[C@@H](CCC(N)=O)C(=O)N[C@@H](CCCCN)C(=O)N[C@@H](Cc4c[nH]c5ccccc45)C(=O)N[C@@H](CCSC)C(=O)N[C@@H](Cc4c[nH]c5ccccc45)C(=O)N[C@@H]([C@@H](C)O)C(=O)N3)NC2=O)C(=O)N[C@@H](CCCCN)C(=O)N[C@@H](CC(C)C)C(=O)N[C@@H](Cc2c[nH]c3ccccc23)C(=O)N1)[C@@H](C)CC)C(N)=O [compound 101] | – | – | – | – | 0.014 | 0.04 | 0.95 | 0.06 | 4
CC[C@H](C)[C@H](NC(=O)[C@@H](NC(=O)[C@H](CCCCN)NC(=O)[C@H](CCCNC(=N)N)NC(=O)[C@@H]1CSSC[C@@H]2NC(=O)[C@H](C)NC(=O)[C@H](CCCNC(=N)N)NC(=O)[C@H](CCCCN)NC(=O)[C@H](CO)NC(=O)[C@H](CC(=O)O)NC(=O)[C@@H]3CSSC[C@H](NC(=O)[C@H](CCCNC(=N)N)NC(=O)[C@H](CC(C)C)NC(=O)CNC(=O)[C@H](CCC(=O)O)NC(=O)[C@H](CSSC[C@H](NC(=O)[C@@H](N)Cc4ccc(O)cc4)C(=O)N[C@@H](CCC(N)=O)C(=O)N[C@@H](CCCCN)C(=O)N[C@@H](Cc4c[nH]c5ccccc45)C(=O)N[C@@H](CCSC)C(=O)N[C@@H](C)C(=O)N[C@@H]([C@@H](C)O)C(=O)N3)NC2=O)C(=O)N[C@@H](CCCCN)C(=O)N[C@@H](CC(C)C)C(=O)N[C@@H](Cc2c[nH]c3ccccc23)C(=O)N1)[C@@H](C)CC)C(N)=O [compound 8] | – | – | – | – | 0.15 | 0.94 | > 5 | 0.69 | 5
